Experimental data from patent US11279733B2, “Peptide antibiotics” (priority 2017, dated 2022).
In brackets after ≈: the same amount, converted by molar mass. Where two headings read alike, the source gives them in different places. Positions of bridges follow the written chain, without caps; N, C: chain ends. Non-standard residues stand in square brackets, D forms with d. Residues, ends and D or L forms follow the SMILES beside them. *: point of attachment. Decanoyl(3R-OH) = CCCCCCC[C@@H](O)CC(=O)*; dBip = N[C@H](Cc1ccc(-c2ccccc2)cc1)C(=O)O; Phe(4-NH2) = Nc1ccc(C[C@H](N)C(=O)O)cc1; dDab = NCC[C@@H](N)C(=O)O; Dab = NCC[C@H](N)C(=O)O

Columns and labels:
A. baumannii ATCC 19606 = settings: ATCC 19606
Description: (§1) Bacteria were either obtained from American Type Culture Collection (ATCC; Manassas, Va., USA) or independent academic clinical isolate collections, as listed in Table 18 below. Bacteria were cultured in Nutrient broth (NB; Bacto Laboratories, catalogue No. 234000) or Mueller Hinton broth (MHB; Bacto Laboratories, catalogue No. 211443) at 37° C. overnight with shaking (˜180 RPM). A sample of each culture was then diluted 50-fold in fresh MHB and incubated at 37° C. for 2-3 h with shaking (˜180 RPM). Compound stock solutions were prepared as 0.64 mg/mL or 2.56 mg/mL in water. The compounds, at twice the final desired concentration, were serially diluted 2-fold across the wells of 96-well plates (Polystyrene, Corning, catalogue No. 3370). Mid-log phase bacterial cultures (after 2-3 h incubation) were diluted to a final concentration of 1×10^6 colony forming units (CFU)/mL, and 50 μL was added to each well giving a final cell density of 5×10^5 and a compound concentration range of 32 μg/mL to 0.015 μg/mL (128-0.06 μg/mL against P. aeruginosa PA9704).

A. baumannii GN_093 PmxR = settings: GN 093 PmxR
Description: as §1

E. coli ATCC 25922 = settings: ATCC 25922
Description: as §1

K. pneumoniae ATCC 13883 = settings: ATCC 13883
Description: as §1

[1] = tested on: K. pneumoniae ATCC 700603, MDR; settings: ATCC 700603
Description: as §1

[2] = tested on: K. pneumoniae ATCC BAA-2146, NDM-1 pos; settings: ATCC BAA-2146
Description: as §1

[3] = tested on: K. pneumoniae GN_102 PmxR; settings: GN 102 PmxR
Description: as §1

[4] = tested on: K. pneumoniae GN_106, PmxR; settings: GN 106, PmxR
Description: as §1

P. aeruginosa ATCC 27853 = settings: ATCC 27853
Description: as §1

[5] = tested on: P. aeruginosa GN_043, PmxR; settings: for MIC, P. aeruginosa FADDI-PA070, PmxR: Table 5
Description: as §1

[6] = tested on: P. aeruginosa GN_105, PmxR; settings: GN 105, PmxR
Description: as §1

[7] = tested on: S. aureus ATCC 25923, MSSA; settings: ATCC 25923
Description: as §1

SMILES	MIC A. baumannii ATCC 19606 (A. baumannii ATCC 19606) [mg/L]	MIC A. baumannii GN_093 PmxR (A. baumannii GN_093 PmxR) [mg/L]	MIC E. coli ATCC 25922 (E. coli ATCC 25922) [mg/L]	MIC K. pneumoniae ATCC 13883 (K. pneumoniae ATCC 13883) [mg/L]	MIC K. pneumoniae ATCC 700603, MDR [1] [mg/L]	MIC K. pneumoniae ATCC BAA-2146, NDM-1 pos [2] [mg/L]	MIC K. pneumoniae GN_102 PmxR [3] [mg/L]	MIC K. pneumoniae GN_106, PmxR [4] [mg/L]	MIC P. aeruginosa ATCC 27853 (P. aeruginosa ATCC 27853) [mg/L]	MIC P. aeruginosa GN_105, PmxR [6] [mg/L]	MIC S. aureus ATCC 25923, MSSA [7] [mg/L]	MIC, A. baumannii ATCC 19606 (A. baumannii ATCC 19606) [mg/L]	MIC, A. baumannii Cl Ptyela 10073 4512:2, PmxR (A. baumannii GN_093 PmxR) [mg/L]	MIC, E. coli ATCC 25922 (E. coli ATCC 25922) [mg/L]	MIC, K. pneumoniae ATCC 13883 (K. pneumoniae ATCC 13883) [mg/L]	MIC, K. pneumoniae ATCC 700603, MDR [1] [mg/L]	MIC, K. pneumoniae ATCC BAA-2146, NDM-1 pos [2] [mg/L]	MIC, K. pneumoniae Cl Koprana 10065 0661:1, PmxR [3] [mg/L]	MIC, K. pneumoniae Cl 138-16347-20362, PmxR [4] [mg/L]	MIC, P. aeruginosa ATCC 27853 (P. aeruginosa ATCC 27853) [mg/L]	also measured
CCCCCCC[C@@H](O)CC(=O)N[C@@H](CCN)C(=O)N[C@@H]1CCNC(=O)[C@H](CC(C)C)NC(=O)[C@H](CCN)NC(=O)[C@H](CCN)NC(=O)[C@H](CC(C)C)NC(=O)[C@@H](Cc2ccc(-c3ccccc3)cc2)NC(=O)[C@H](CCN)NC1=O [compound 6661, 3(R)OH-nC9CO-L-Dab-cyc[D-Dab-L-Dab-D-Bip-L-Leu-L-Dab-L-Dab-L-Leu]] ({Decanoyl(3R-OH)}-[Dab][dDab][Dab][dBip]L[Dab][Dab]L; lactam 2-C)	>32	>32	32 (≈ 28.6 µM)	32 (≈ 28.6 µM)	32 (≈ 28.6 µM)	32 (≈ 28.6 µM)	>32	>32	8 (≈ 7.14 µM)	8 (≈ 7.14 µM)	8 (≈ 7.14 µM)	–	–	–	–	–	–	–	–	–	MIC P. aeruginosa GN_043, PmxR ([5]; P. aeruginosa GN_043, PmxR): >32 mg/L
CCCCCCC[C@@H](O)CC(=O)N[C@H](CCN)C(=O)N[C@H]1CCNC(=O)[C@H](CC(C)C)NC(=O)[C@H](CCN)NC(=O)[C@H](CCN)NC(=O)[C@H](CC(C)C)NC(=O)[C@@H](Cc2ccccc2)NC(=O)[C@H](CCCNC(=N)N)NC1=O [compound 8634, 3(R)OH-nC9CO-D-Dab-cyc[L-Dab-L-Arg-D-Phe-L-Leu-L-Dab-L-Dab-L-Leu]] ({Decanoyl(3R-OH)}-[dDab][Dab]R[dF]L[Dab][Dab]L; lactam 2-C)	–	–	–	–	–	–	–	–	–	–	–	16 (≈ 14.5 µM)	32 (≈ 29.1 µM)	8 (≈ 7.27 µM)	8 (≈ 7.27 µM)	4 (≈ 3.63 µM)	8 (≈ 7.27 µM)	4 (≈ 3.63 µM)	8 (≈ 7.27 µM)	4 (≈ 3.63 µM)	MIC, P. aeruginosa FADDI-PA070, PmxR ([5]; polymyxin-resistant): 2 mg/L (≈ 1.82 µM); MIC, P. aeruginosa PA9704, PmxR [6]: 4 mg/L (≈ 3.63 µM); MIC, S. Aureus ATCC 25923, MSSA [7]: 16 mg/L (≈ 14.5 µM)
CCCCCCC[C@@H](O)CC(=O)N[C@H](CCN)C(=O)N[C@H]1CCNC(=O)[C@H](CC(C)C)NC(=O)[C@H](CCN)NC(=O)[C@H](Cc2ccc(N)cc2)NC(=O)[C@H](CC(C)C)NC(=O)[C@@H](Cc2ccccc2)NC(=O)[C@H](CCN)NC1=O [compound 8642, 3(R)OH-nC9CO-D-Dab-cyc[L-Dab-L-DAB-D-Phe-L-Leu-L-4NH2Phe-L-Dab-L-Leu]] ({Decanoyl(3R-OH)}-[dDab][Dab][Dab][dF]L[Phe(4-NH2)][Dab]L; lactam 2-C)	–	–	–	–	–	–	–	–	–	–	–	8 (≈ 7.23 µM)	16 (≈ 14.5 µM)	4 (≈ 3.62 µM)	4 (≈ 3.62 µM)	4 (≈ 3.62 µM)	4 (≈ 3.62 µM)	2 (≈ 1.81 µM)	4 (≈ 3.62 µM)	8 (≈ 7.23 µM)	MIC, P. aeruginosa FADDI-PA070, PmxR ([5]; polymyxin-resistant): 8 mg/L (≈ 7.23 µM); MIC, P. aeruginosa PA9704, PmxR [6]: 8 mg/L (≈ 7.23 µM); MIC, S. Aureus ATCC 25923, MSSA [7]: 8 mg/L (≈ 7.23 µM)
CCCCCCC[C@@H](O)CC(=O)N[C@H](CCN)C(=O)N[C@H]1CCNC(=O)[C@H](CC(C)C)NC(=O)[C@H](Cc2ccc(N)cc2)NC(=O)[C@H](CCN)NC(=O)[C@H](CC(C)C)NC(=O)[C@@H](Cc2ccccc2)NC(=O)[C@H](CCN)NC1=O [compound 8644, 3(R)OH-nC9CO-D-Dab-cyc[L-Dab-L-DAB-D-Phe-L-Leu-L-Dab-L-4NH2Phe-L-Leu]] ({Decanoyl(3R-OH)}-[dDab][Dab][Dab][dF]L[Dab][Phe(4-NH2)]L; lactam 2-C)	16 (≈ 14.5 µM)	>32	16 (≈ 14.5 µM)	8 (≈ 7.23 µM)	8 (≈ 7.23 µM)	4 (≈ 3.62 µM)	2 (≈ 1.81 µM)	8 (≈ 7.23 µM)	8 (≈ 7.23 µM)	8 (≈ 7.23 µM)	32 (≈ 28.9 µM)	–	–	–	–	–	–	–	–	–	MIC P. aeruginosa GN_043, PmxR ([5]; polymyxin-resistant): 8 mg/L (≈ 7.23 µM)
